Test results from US20250144187A1, “COMBINATION OF HYDROLASES AND ANTI-MICROORGANISM DRUGS AND USES THEREOF” (CENTRE FOR EYE AND VISION RESEARCH LIMITED, priority 2023, published 2025).
Like-named read-outs stand apart in the source and are kept apart here.

Experiments:
MRSA in ARPE-19 cells = experiment: Cell-based infection model, cefdinir/lysozyme; conditions: 0.25 μg/ml cefdinir combined with 0.5 mg/ml lysozyme
MRSA ocular infection = experiment: Ocular infection model, tedizolid phosphate/lysozyme; format: in vivo, C57BL/6 mice
Source text: 20) Ocular infection model. According to the reported method [Zhang, Z et al., Curt. Protoc, mouse Bot 7, 55-63 (2017)], 40 C57BL/6, male mice ([…]) were used to evaluate the combination effect in the ocular infection model. Specifically, all mice were divided into 5 groups (4 infected groups and 1 uninfected group, 8 mice per group). Among than, 32 mice in infected groups were infected by slowly inoculating about 2.5×10^7 CFUs of mid-log phase MRSA into each ocular surface. To collect these mid-tog phase ARA, a colony of MRSA cultured in LB-agar plate was firstly picked up and inoculated into fresh LB medium for overnight incubation at 37° C. Then, the overnight culture was diluted (1:300) into fresh LB medium for continuous culture until bacterial OD600 was about 0.6. […] Next, 2.5 μl of bacterial suspensions were slowly inoculated into each ocular surface of anesthetized C57/BL6 mouse on the side of surgical bed. […] After that, they were repeated from the air-anesthetizing room and monitored until they were fully awake, followed by retuned to their cages. […] Then, according to the standard protocol^28, 3 μl of tear fluid was gradient-diluted at 10-fold in 96-well plat to figure out the initial number of viable bacteria in tear fluid according to quantitative grown colony after overnight culture. […]

MRSE = experiment: Mutation frequency and prevention concentration analysis, tedizolid phosphate/lysozyme
MRSA and MRSE = experiment: Resistance development studies (serial passages), tedizolid phosphate/lysozyme; format: cell-based; conditions: after 12-day serial passages
Description: 5) Resistance development studies. […] H et al., Nat Commun. 11, 5263 (2020)], MRSA at exponential phase was diluted (1:1000) into fresh LB medium containing different concentrations of tedizolid phosphate, lysozyme alone or their combination. After cultured at 37° C. for 24 hours, the MIC of culture was determined by standard two-fold serial dilutions in 96-well microtiter plates. […] . All assays were performed in triplicate.

MRSA = experiment: Nascent protein synthesis analysis (OPP probe); format: cell-based; conditions: Staphylococcus aureus, 1 h, read-out: minimal dosage of tedizolid phosphate for synthesis inhibition of half of the nascent protein
Description: 12) Nascent protein synthesis analysis. According to the previously reported method [Forester, C. M et al., Proc. Nat. […] Specifically, mid-log-phase MRSA with OD600 of 0.4 to 0.6 was treated with lysozyme, tedizolid phosphate or their combination at different concentrations at 37° C. for 1 hour. These bacteria served as related negative control groups. Positive control groups had similar protocols but with addition of 20 μM OPP. After 1 hour incubation, all bacteria were collected washed by cold PBS for 3 times and fixed by 3.7% formaldehyde in PBS, followed by re-suspension in lysis buffer containing 0.5% Triton® X-100. Then, these fixed and permeabilized cells were incubated with Click-iT™ plus OPP reaction cocktail according to the standard protocol [Forester, C. M et al., Proc. Nat. Acad. U.S.A. 115, 2353-2358 (2018)]. After 30 minutes incubation in the prevention of light at room temperature, the reaction cocktail was removed. Next, these fixed cells in 96-well plate were washed by using 200 μl/well of Click-iT® reaction rinse buffer, followed by further incubation with 1×HCS nuclear Mask™ blue stain working solution. After 30 minutes incubation in the prevention of light at room temperature, the nuclear Mask™ blue stain working solution was removed. […] Inhibition degrees of nascent proteins synthesis were expressed with fluorescence ratio (Alexa Fluor®/nuclear Mask™) as average±SD. […]

| SMILES | drop of bacterial load in infected ARPE-19 cells (MRSA in ARPE-19 cells) | bacterial load in infected ARPE-19 cells (MRSA in ARPE-19 cells; MOI 50) | expression level of SP-D in tear fluids (MRSA ocular infection; combination group compared with uninfected group) [fold] | bacterial load in both tear fluids and eyeball homogenates (MRSA ocular infection; combination therapy (0.125 mg/ml tedizolid phosphate + 100 mg/ml lysozyme)) [fold] | mutation frequencies (MRSE; combination with lysozyme) | prevention concentrations of tedizolid phosphate (MRSE; combination with lysozyme) [µg/mL] | mutation frequencies (MRSE; without combination therapy) | prevention concentrations of tedizolid phosphate (MRSE; without lysozyme) [µg/mL] | changes in the MIC level of tedizolid phosphate (MRSA and MRSE; combination therapy with lysozyme) | changes in the MIC level of tedizolid phosphate (MRSA and MRSE; tedizolid phosphate alone) [fold] | IC50 (MRSA; combination with 0.5 mg/ml lysozyme) [µg/mL] | IC50 (MRSA; monotherapy) [µg/mL] |
| --- | --- | --- | --- | --- | --- | --- | --- | --- | --- | --- | --- | --- |
| C=CC1=C(C(=O)O)N2C(=O)[C@@H](NC(=O)/C(=N\O)c3csc(N)n3)[C@H]2SC1 [cefdinir, Cefdinir] | 10^2 fold | 10^3 CFU/ml | – | – | – | – | – | – | – | – | – | – |
| Cn1nnc(-c2ccc(-c3ccc(N4C[C@H](COP(=O)(O)O)OC4=O)cc3F)cn2)n1 [tedizolid phosphate, Tedizolid Phosphate] | – | – | 1.5 | 0.01 | 2×10^−9 | ≤ 1 | ≥ 5×10^−7 | > 50 | remained unchanged | 30 | 0.32 | 9.5 |
